{
  "source": "ChEMBL document CHEMBL1129719",
  "about": "“The synthesis of a radioligand with high potency and selectivity for CCKB/ gastrin receptors” (Bioorg Med Chem Lett, 1996)",
  "key": {"[1]": {"molecular_target": "T1, Gastrin/cholecystokinin type B receptor (Rattus norvegicus, UniProt P30553)", "T1 sequence (P30553 whole entry)": "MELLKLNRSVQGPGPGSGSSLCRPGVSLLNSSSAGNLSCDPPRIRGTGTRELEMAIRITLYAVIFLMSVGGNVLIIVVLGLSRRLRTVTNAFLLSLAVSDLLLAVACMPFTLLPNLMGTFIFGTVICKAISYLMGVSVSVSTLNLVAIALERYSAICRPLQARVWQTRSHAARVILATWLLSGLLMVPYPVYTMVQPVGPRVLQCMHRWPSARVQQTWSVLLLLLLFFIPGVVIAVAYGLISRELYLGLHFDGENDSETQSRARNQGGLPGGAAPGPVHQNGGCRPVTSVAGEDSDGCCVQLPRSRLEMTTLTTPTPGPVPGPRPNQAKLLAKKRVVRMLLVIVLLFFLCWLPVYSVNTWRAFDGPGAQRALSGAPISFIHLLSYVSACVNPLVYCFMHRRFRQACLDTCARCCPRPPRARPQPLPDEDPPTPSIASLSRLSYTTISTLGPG", "test": "Compound was tested for binding affinity against Cholecystokinin type B receptor in rat cortical membranes using L-365260 as the radioligand.", "assay_type": "cell membranes"}, "Rattus norvegicus [2]": {"species": "Rattus norvegicus", "test": "pKD value in rat cerebral cortical membranes", "assay_type": "functional"}, "Rattus norvegicus [3]": {"species": "Rattus norvegicus", "test": "Bmax value was determined in rat cerebral cortical membranes"}},
  "data": [
    {"smiles": "O=C(O)c1cc(NC(=O)[C@H](Cc2ccccc2)NC(=O)c2cc3cc[nH]c3cc2C(=O)NCC23CC4CC(CC(C4)C2)C3)cc(C(=O)O)c1", "values": [
      {"measurement": "Ki", "setting": "[1]", "value": 23.4, "unit": "nM"},
      {"measurement": "pKD", "setting": "Rattus norvegicus [2]", "value": 9.48},
      {"measurement": "Bmax", "setting": "Rattus norvegicus [3]", "value": 3.61, "unit": "pM/g"}
    ]}
  ]
}
